In patent US9845330B2, “6-nitro-2,3-dihydroimidazo[2,1-b]oxazoles and a process for the preparation thereof” (priority 2013, dated 2017) one finds MIC data, which are given here for 32 compounds.

≈ marks a conversion by molar mass, not a printed value.

Assay [1] relates to M. tuberculosis MDR (resistant to isoniazid and rifampicin). As to the kind of experiment: microbe, parasite or virus in culture. Type of assay: cell-based. The note with it: Mycobacterium tuberculosis, 504 h, read-out: MIC M. tb MDR.
In assay [2] the test system is M. tuberculosis XDR (resistant to isoniazid, rifampicin, amikacin and moxifloxacin). As to the kind of experiment: microbe, parasite or virus in culture. Type of assay: cell-based. The note with it: Mycobacterium tuberculosis, 504 h, read-out: MIC M. tb XDR.

Regarding `CN(c1ccccc1)S(=O)(=O)c1ccc(OC[C@@]2(C)Cn3cc([N+](=O)[O-])nc3O2)cc1` [IIB4, (R)—N-methyl-4-{(2-methyl-6-nitro-2,3-dihydroimidazo[2,1-b]oxazol-2-yl)methoxy}-N-phenylbenzenesulfonamide], the MIC in assay [1] and in assay [2] was 4 µg/mL (≈ 9 µM) in each case.

For the compound `C[C@]1(COc2ccc(-n3cc(-c4ccccc4F)nn3)cc2)Cn2cc([N+](=O)[O-])nc2O1` [IA4, (R)-2-{4-[4-(2-fluorophenyl)-1H-1,2,3-triazol-1-yl]phenoxymethyl}-2,3-dihydro-2-methyl-6-nitroimidazo[2,1-b]oxazole], the MIC in assay [1] and in assay [2] was 2 µg/mL (≈ 4.58 µM) in each case.

Consider `COc1ccc(NC(=S)Nc2ccc(OC[C@@]3(C)Cn4cc([N+](=O)[O-])nc4O3)cc2)cc1` [IIA7, (R)-1-(4-methoxyphenyl)-3-{4-(2-methyl-6-nitro-2,3-dihydroimidazo[2,1-b]oxazol-2-yl)methoxyphenyl}thiourea], for which the MIC in assay [1] and in assay [2] was 2 µg/mL (≈ 4.39 µM) each time.

With `COc1ccc(NC(=O)Nc2ccc(OC[C@@]3(C)Cn4cc([N+](=O)[O-])nc4O3)cc2)cc1` [IIA5, (R)-1-(4-methoxyphenyl)-3-{4-(2-methyl-6-nitro-2,3-dihydroimidazo[2,1-b]oxazol-2-yl)methoxyphenyl}urea], the MIC in assay [1] and in assay [2] was 1 µg/mL (≈ 2.28 µM) throughout.

Take `Cc1ccc(OCc2cn(-c3ccc(OC[C@@]4(C)Cn5cc([N+](=O)[O-])nc5O4)cc3)nn2)cc1` [IA29]: the MIC in assay [1] and in assay [2] was 32 µg/mL (≈ 69.2 µM) in each case.

Regarding `C[C@]1(COc2ccc(-n3cc(-c4cccc(C(F)(F)F)c4)nn3)cc2)Cn2cc([N+](=O)[O-])nc2O1` [IA13, (R)-2-{4-[4-(3-trifluoromethylphenyl)-1H-1,2,3-triazol-1-yl]phenoxymethyl}-2,3-dihydro-2-methyl-6-nitroimidazo[2,1-b]oxazole], the MIC in assay [1] and in assay [2] was 2 µg/mL (≈ 4.11 µM) throughout.

In the case of `Cc1ccc(N(C)S(=O)(=O)c2ccc(OC[C@@]3(C)Cn4cc([N+](=O)[O-])nc4O3)cc2)cc1` [IIB5, (R)—N-methyl-4-{(2-methyl-6-nitro-2,3-dihydroimidazo[2,1-b]oxazol-2-yl)methoxy}-N-(p-tolyl)benzenesulfonamide], the MIC in assay [1] and in assay [2] was 4 µg/mL (≈ 8.72 µM) each time.

Consider `C[C@]1(COc2ccccc2-n2cc(-c3ccc(C(F)(F)F)cc3)nn2)Cn2cc([N+](=O)[O-])nc2O1` [IA22, (R)-2-{2-[4-(4-trifluoromethylphenyl)-1H-1,2,3-triazol-1-yl]phenoxymethyl}-2,3-dihydro-2-methyl-6-nitroimidazo[2,1-b]oxazole], for which the MIC in assay [1] and in assay [2] was 4 µg/mL (≈ 8.22 µM) throughout.

For the compound `C[C@]1(COc2ccc(-n3cc(-c4ccc(F)cc4)nn3)cc2)Cn2cc([N+](=O)[O-])nc2O1` [IA3, (R)-2-{4-[4-(4-fluorophenyl)-1H-1,2,3-triazol-1-yl]phenoxymethyl}-2,3-dihydro-2-methyl-6-nitroimidazo[2,1-b]oxazole], the MIC in assay [1] and in assay [2] was 0.25 µg/mL (≈ 0.573 µM) each time.

With `CC(C)c1ccc(OCc2cn(-c3ccc(OC[C@@]4(C)Cn5cc([N+](=O)[O-])nc5O4)cc3)nn2)cc1` [IA30], the MIC in assay [1] and in assay [2] was 32 µg/mL (≈ 65.2 µM) each time.

Turning to `C[C@]1(COc2ccc(-c3cc(COc4ccc(C(F)(F)F)cc4)on3)cc2)Cn2cc([N+](=O)[O-])nc2O1` [IC15, (R)-2-{4-[5-(4-trifluoromethylphenoxymethyl)isoxazol-3-yl]phenoxymethyl}-2,3-dihydro-2-methyl-6-nitroimidazo[2,1-b]oxazole], the MIC in assay [1] and in assay [2] was 0.5 µg/mL (≈ 0.968 µM) in each case.

Take `Cc1ccc(NC(=O)Nc2ccc(OC[C@@]3(C)Cn4cc([N+](=O)[O-])nc4O3)cc2)cc1` [IIA4, (R)-1-(4-methylphenyl)-3-{4-(2-methyl-6-nitro-2,3-dihydroimidazo[2,1-b]oxazol-2-yl)methoxyphenyl}urea]: the MIC in assay [1] and in assay [2] was 0.06 µg/mL (≈ 0.142 µM) throughout.

Regarding `C[C@]1(COc2ccc(-n3cc(-c4ccccc4C(F)(F)F)nn3)cc2)Cn2cc([N+](=O)[O-])nc2O1` [IA6, (R)-2-{4-[4-(2-trifluoromethylphenyl)-1H-1,2,3-triazol-1-yl]phenoxymethyl}-2,3-dihydro-2-methyl-6-nitroimidazo[2,1-b]oxazole], the MIC in assay [1] and in assay [2] was 1 µg/mL (≈ 2.06 µM) each time.

In the case of `C[C@]1(COc2ccc(-c3cc(-c4ccccc4)on3)cc2)Cn2cc([N+](=O)[O-])nc2O1` [IC1, (R)-2-{4-[5-phenylisoxazol-3-yl]phenoxymethyl}-2,3-dihydro-2-methyl-6-nitroimidazo[2,1-b]oxazole], the MIC in assay [1] and in assay [2] was 0.12 µg/mL (≈ 0.287 µM) throughout.

Turning to `CCc1ccc(OCc2cn(-c3ccc(OC[C@@]4(C)Cn5cc([N+](=O)[O-])nc5O4)cc3)nn2)cc1` [IA31], the MIC in assay [1] and in assay [2] was 0.25 µg/mL (≈ 0.525 µM) each time.

As for `C[C@]1(COc2ccccc2-n2cc(COc3ccc(C(F)(F)F)cc3)nn2)Cn2cc([N+](=O)[O-])nc2O1` [IA41], the MIC in assay [1] and in assay [2] was 2 µg/mL (≈ 3.87 µM) each time.

Consider `CCCCCc1cn(-c2ccc(OC[C@@]3(C)Cn4cc([N+](=O)[O-])nc4O3)cc2)nn1` [IA15, (R)-2-{4-[4-pentyl-1H-1,2,3-triazol-1-yl]phenoxymethyl}-2,3-dihydro-2-methyl-6-nitroimidazo[2,1-b]oxazole], for which the MIC in assay [1] and in assay [2] was 32 µg/mL (≈ 77.6 µM) each time.

`C[C@]1(COc2cccc(-n3cc(COc4ccc(C(F)(F)F)cc4)nn3)c2)Cn2cc([N+](=O)[O-])nc2O1` [IA35]: the MIC in assay [1] and in assay [2] was 2 µg/mL (≈ 3.87 µM) each time.

As to `CCc1ccc(OCc2cc(-c3ccc(OC[C@@]4(C)Cn5cc([N+](=O)[O-])nc5O4)cc3)no2)cc1` [IC19, (R)-2-{4-[5-(4-ethylphenoxymethyl)isoxazol-3-yl]phenoxymethyl}-2,3-dihydro-2-methyl-6-nitroimidazo[2,1-b]oxazole], the MIC in assay [1] and in assay [2] was 2 µg/mL (≈ 4.2 µM) each time.

On to `C[C@]1(COc2ccccc2-n2cc(-c3ccc(F)cc3)nn2)Cn2cc([N+](=O)[O-])nc2O1` [IA21, (R)-2-{2-[4-(4-fluorophenyl)-1H-1,2,3-triazol-1-yl]phenoxymethyl}-2,3-dihydro-2-methyl-6-nitroimidazo[2,1-b]oxazole], for which the MIC in assay [1] and in assay [2] was 1 µg/mL (≈ 2.29 µM) in each case.

Turning to `C[C@]1(COc2ccccc2-n2cc(COc3ccccc3F)nn2)Cn2cc([N+](=O)[O-])nc2O1` [IA42], the MIC in assay [1] and in assay [2] was 2 µg/mL (≈ 4.29 µM) each time.

In the case of `CCCCCc1cc(-c2ccc(OC[C@@]3(C)Cn4cc([N+](=O)[O-])nc4O3)cc2)no1` [IC11, (R)-2-{4-[5-pentylisoxazol-3-yl]phenoxymethyl}-2,3-dihydro-2-methyl-6-nitroimidazo[2,1-b]oxazole], the MIC in assay [1] and in assay [2] was 32 µg/mL (≈ 77.6 µM) in each case.

In the case of `CCc1ccc(-c2cc(-c3ccc(OC[C@@]4(C)Cn5cc([N+](=O)[O-])nc5O4)cc3)no2)cc1` [IC2, (R)-2-{4-[5-(4-ethylphenyl)isoxazol-3-yl]phenoxymethyl}-2,3-dihydro-2-methyl-6-nitroimidazo[2,1-b]oxazole], the MIC in assay [1] and in assay [2] was 2 µg/mL (≈ 4.48 µM) in each case.

For `C[C@]1(COc2ccc(-n3cc(COc4ccc(F)cc4)nn3)cc2)Cn2cc([N+](=O)[O-])nc2O1` [IA26], the MIC in assay [1] and in assay [2] was 0.5 µg/mL (≈ 1.07 µM) each time.

Take `CN(c1ccc(C(F)(F)F)cc1)S(=O)(=O)c1ccc(OC[C@@]2(C)Cn3cc([N+](=O)[O-])nc3O2)cc1` [IIB6, (R)—N-methyl-4-{(2-methyl-6-nitro-2,3-dihydroimidazo[2,1-b]oxazol-2-yl)methoxy}-N-(p-trifluoromethylphenyl)benzenesulfonamide]: the MIC in assay [1] and in assay [2] was 1 µg/mL (≈ 1.95 µM) throughout.

As to `C[C@]1(COc2cccc(-n3cc(-c4ccc(F)cc4)nn3)c2)Cn2cc([N+](=O)[O-])nc2O1` [IA17, (R)-2-{3-[4-(4-fluorophenyl)-1H-1,2,3-triazol-1-yl]phenoxymethyl}-2,3-dihydro-2-methyl-6-nitroimidazo[2,1-b]oxazole], the MIC in assay [1] and in assay [2] was 2 µg/mL (≈ 4.58 µM) each time.

Take `CC(C)c1ccc(-c2cn(-c3ccc(OC[C@@]4(C)Cn5cc([N+](=O)[O-])nc5O4)cc3)nn2)cc1` [IA9, (R)-2-{4-[4-(4-isopropylphenyl)-1H-1,2,3-triazol-1-yl]phenoxymethyl}-2,3-dihydro-2-methyl-6-nitroimidazo[2,1-b]oxazole]: the MIC in assay [1] and in assay [2] was 1 µg/mL (≈ 2.17 µM) each time.

With `C[C@]1(COc2ccc(-n3cc(COc4ccc(OC(F)(F)F)cc4)nn3)cc2)Cn2cc([N+](=O)[O-])nc2O1` [IA25], the MIC in assay [1] and in assay [2] was 0.12 µg/mL (≈ 0.225 µM) in each case.

As to `C[C@]1(COc2ccc(S(=O)(=O)N3CCOCC3)cc2)Cn2cc([N+](=O)[O-])nc2O1` [IIC10, (R)-2-{4-(morpholinsulfonyl)phenoxymethyl}-2,3-dihydro-2-methyl-6-nitroimidazo[2,1-b]oxazole], the MIC in assay [1] and in assay [2] was 0.5 µg/mL (≈ 1.18 µM) in each case.

Consider `C[C@]1(COc2ccc(-c3cc(COc4ccccc4F)on3)cc2)Cn2cc([N+](=O)[O-])nc2O1` [IC16, (R)-2-{4-[5-(2-fluorophenoxymethyl)isoxazol-3-yl]phenoxymethyl}-2,3-dihydro-2-methyl-6-nitroimidazo[2,1-b]oxazole], for which the MIC in assay [1] and in assay [2] was 0.5 µg/mL (≈ 1.07 µM) throughout.

Take `C[C@]1(COc2ccc(-n3nnnc3Oc3ccc(OC(F)(F)F)cc3)cc2)Cn2cc([N+](=O)[O-])nc2O1` [IB10, (R)-2-{4-[5-(4-trifluoromethoxyphenoxy)-1H-tetrazol-1-yl]phenoxymethyl}-2,3-dihydro-2-methyl-6-nitroimidazo[2,1-b]oxazole]: the MIC in assay [1] and in assay [2] was 1 µg/mL (≈ 1.93 µM) throughout.

For the compound `C[C@]1(COc2ccc(S(=O)(=O)N3CCCCC3)cc2)Cn2cc([N+](=O)[O-])nc2O1` [IIC7, (R)-2-{4-(piperidin-1-ylsulfonyl)phenoxymethyl}-2,3-dihydro-2-methyl-6-nitroimidazo[2,1-b]oxazole], the MIC in assay [1] and in assay [2] was 1 µg/mL (≈ 2.37 µM) in each case.
